Data: ChEMBL document CHEMBL1201862, “PubChem BioAssay data set” (2004)
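A five-concentration, 48-hour dose response in 96-well plates underlies each endpoint, interpolated linearly between surrounding concentrations. GI50 is the concentration that inhibits growth by half.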 The source made the active and inactive calls. Cut-off read from the data, not from the text of the source: active = GI50 up to about 1.1 µM and inactive = higher.

How the values were obtained:
Experiment in all cases: DTP human tumour cell line panel, 48 h
UACC-62 = tested on: UACC-62
UACC-257 = tested on: UACC-257
HOP-92 = tested on: HOP-92
OVCAR-8 = tested on: OVCAR-8
SK-OV-3 = tested on: SK-OV-3
HOP-62 = tested on: HOP-62
OVCAR-4 = tested on: OVCAR-4
CAKI-1 = tested on: CAKI-1
786-0 = tested on: 786-0
OVCAR-3 = tested on: OVCAR-3
IGROV-1 = tested on: IGROV-1
SK-MEL-28 = tested on: SK-MEL-28
KM12 = tested on: KM12
HCT-15 = tested on: HCT-15
OVCAR-5 = tested on: OVCAR-5
HCT-116 = tested on: HCT-116
EKVX = tested on: EKVX

SMILES	GI50 (UACC-62)	GI50 (UACC-257)	GI50 (HOP-92)	GI50 (OVCAR-8)	GI50 (SK-OV-3)	GI50 (HOP-62)	GI50 (OVCAR-4)	GI50 (CAKI-1)	GI50 (786-0)	GI50 (OVCAR-3)	GI50 (IGROV-1)	GI50 (SK-MEL-28)	GI50 (KM12)	GI50 (HCT-15)	GI50 (OVCAR-5)	GI50 (HCT-116)	GI50 (EKVX)
Cc1ccc(S(=O)OC2C3CC4CC(C3)CC2C4)cc1 (stereo not given)	> 100 µM (inactive)	> 100 µM (inactive)	> 100 µM (inactive)	> 100 µM (inactive)	> 100 µM (inactive)	> 100 µM (inactive)	> 100 µM (inactive)	> 100 µM (inactive)	> 100 µM (inactive)	> 100 µM (inactive)	> 100 µM (inactive)	> 100 µM (inactive)	> 100 µM (inactive)	> 100 µM	> 100 µM (inactive)	> 100 µM (inactive)	> 100 µM (inactive)
CCCCN(CCCC)CC(C(=O)Nc1ccc([N+](=O)[O-])cc1[N+](=O)[O-])/C(C)=N\NC(=O)c1ccncc1 (stereo not given)	> 100 µM (inactive)	> 100 µM (inactive)	90.6 µM (inactive)	> 100 µM (inactive)	> 100 µM (inactive)	> 100 µM (inactive)	> 100 µM (inactive)	> 100 µM (inactive)	> 100 µM (inactive)	> 100 µM (inactive)	> 100 µM (inactive)	> 100 µM (inactive)		> 100 µM	> 100 µM (inactive)		> 100 µM (inactive)
CN(C(=O)c1ccc(Cl)cc1)C(=S)N1CCN(c2ccccn2)CC1	> 100 µM (inactive)	> 100 µM (inactive)	35.6 µM (inactive)	> 100 µM (inactive)	> 100 µM (inactive)	> 100 µM (inactive)	> 100 µM (inactive)	> 100 µM (inactive)	> 100 µM (inactive)	> 100 µM (inactive)	> 100 µM (inactive)	> 100 µM (inactive)	> 100 µM (inactive)	> 100 µM	> 100 µM (inactive)	> 100 µM (inactive)	
C=C1C(=O)OC2CC3(C)C=CC(=O)C(=C)C3CC12 (stereo not given)	1.5 µM (inactive)	1.64 µM (inactive)	1.91 µM (inactive)	1.55 µM (inactive)	20.8 µM (inactive)	14.7 µM (inactive)	2.18 µM (inactive)	1.36 µM (inactive)	1.76 µM (inactive)	2.32 µM (inactive)	2.28 µM (inactive)	1.77 µM (inactive)	2.08 µM (inactive)	1.71 µM	3.24 µM (inactive)	1.28 µM (inactive)	2.77 µM (inactive)
CN(C)c1ccc(C(=C(c2ccc(N(C)C)cc2)c2ccc(N(C)C)cc2)c2ccc(N(C)C)cc2)cc1	18.8 µM (inactive)	17.3 µM (inactive)		19.6 µM (inactive)	20.8 µM (inactive)	39.5 µM (inactive)	20.1 µM (inactive)	12.4 µM (inactive)	11.4 µM (inactive)	0.31 µM (active)	17.3 µM (inactive)	14.3 µM (inactive)	18.5 µM (inactive)	14.4 µM	> 100 µM (inactive)	13.4 µM (inactive)	18.7 µM (inactive)
CC(C)(C)C(C#N)(C#N)c1ccc(C(C#N)(C#N)C(C)(C)C)nn1	> 100 µM (inactive)	> 100 µM (inactive)	72.4 µM (inactive)	> 100 µM (inactive)	41.3 µM (inactive)	> 100 µM (inactive)	89.7 µM (inactive)	83 µM (inactive)	74 µM (inactive)	> 100 µM (inactive)	> 100 µM (inactive)	> 100 µM (inactive)	> 100 µM (inactive)	> 100 µM	> 100 µM (inactive)		> 100 µM (inactive)
COc1ccc(CNc2nc3c(NC(C)=O)cc(C(F)(F)F)cc3nc2-c2ccccc2)cc1OC	45.3 µM (inactive)	> 100 µM (inactive)		56.8 µM (inactive)	40.7 µM (inactive)	42.1 µM (inactive)	10.6 µM (inactive)	31.6 µM (inactive)	37.1 µM (inactive)	93.1 µM (inactive)	> 100 µM (inactive)	19 µM (inactive)	> 100 µM (inactive)	> 100 µM	> 100 µM (inactive)	48.4 µM (inactive)	35.6 µM (inactive)
COC(=O)C1=Cc2c(cc(OC)c(OC)c2OC)[C@H](c2ccc(OC)c(OC)c2OC)C1C(=O)OC (stereo not given in full)	54.2 µM (inactive)	> 100 µM (inactive)	17.4 µM (inactive)	> 100 µM (inactive)	> 100 µM (inactive)	> 100 µM (inactive)	> 100 µM (inactive)	> 100 µM (inactive)	> 100 µM (inactive)	> 100 µM (inactive)	> 100 µM (inactive)	> 100 µM (inactive)	> 100 µM (inactive)	75 µM	> 100 µM (inactive)	92.3 µM (inactive)	> 100 µM (inactive)
COc1ccccc1NC(=O)CC(=O)N/N=C/c1ccc(N(CCC#N)S(=O)(=O)c2ccccc2)cc1	> 100 µM (inactive)	> 100 µM (inactive)	> 100 µM (inactive)	> 100 µM (inactive)		> 100 µM (inactive)	> 100 µM (inactive)	> 100 µM (inactive)	> 100 µM (inactive)	> 100 µM (inactive)	> 100 µM (inactive)	> 100 µM (inactive)	> 100 µM (inactive)	> 100 µM	> 100 µM (inactive)	> 100 µM (inactive)	> 100 µM (inactive)
C[n+]1c2n(c3nc(N)[nH]c(=O)c31)C1OC(C2)C(O)C1O (stereo not given)	> 100 µM (inactive)	> 100 µM (inactive)	> 100 µM (inactive)	> 100 µM (inactive)	> 100 µM (inactive)	> 100 µM (inactive)	> 100 µM (inactive)	> 100 µM (inactive)	> 100 µM (inactive)	> 100 µM (inactive)	> 100 µM (inactive)	> 100 µM (inactive)	> 100 µM (inactive)		> 100 µM (inactive)	> 100 µM (inactive)	> 100 µM (inactive)
C=CC(=O)N1C/C(=C\c2ccc(Cl)c(Cl)c2)C(=O)/C(=C/c2ccc(Cl)c(Cl)c2)C1	0.298 µM (active)	0.474 µM (active)	1.19 µM (inactive)	0.115 µM (active)	0.378 µM (active)	0.264 µM (active)	0.0318 µM (active)	0.244 µM (active)	0.0579 µM (active)	0.0865 µM (active)	0.124 µM (active)	0.458 µM (active)	0.237 µM (active)	0.0716 µM	0.294 µM (active)	0.0612 µM (active)	
Cn1c2ccccc2c2cc(-c3ccccc3)c3c(c21)C(=O)c1ccccc1C3=O	13.3 µM (inactive)	18 µM (inactive)	12.3 µM (inactive)	18.2 µM (inactive)	38.3 µM (inactive)	40.5 µM (inactive)	14.5 µM (inactive)	28.3 µM (inactive)	16.9 µM (inactive)	11.9 µM (inactive)	21 µM (inactive)	14.7 µM (inactive)	21.5 µM (inactive)			15.8 µM (inactive)	> 10 µM (inactive)
CN(C)c1ccc(C(=C2C=CC(=[N+](C)C)C=C2)c2ccc(N(C)C)cc2)cc1 [GENTIAN VIOLET]	0.143 µM (active)	0.176 µM (active)	0.196 µM (active)		0.224 µM (active)	0.375 µM (active)	0.264 µM (active)	0.34 µM (active)	0.0923 µM (active)		0.21 µM (active)	0.53 µM (active)	0.0942 µM (active)	0.334 µM	0.202 µM (active)		0.368 µM (active)
CCOP(=O)(OCC)C(C(=O)OC)C(=O)C(=O)Nc1cccc([N+](=O)[O-])c1 (stereo not given)	> 100 µM (inactive)	> 100 µM (inactive)		> 100 µM (inactive)	> 100 µM (inactive)	> 100 µM (inactive)	> 100 µM (inactive)	> 100 µM (inactive)	> 100 µM (inactive)	> 100 µM (inactive)	> 100 µM (inactive)	> 100 µM (inactive)	> 100 µM (inactive)	> 100 µM	> 100 µM (inactive)	> 100 µM (inactive)	> 100 µM (inactive)
CC1(C)OCN(c2ccc(S(N)(=O)=O)cc2)Cn2c1nc1ccccc12	> 100 µM (inactive)	> 100 µM (inactive)	> 100 µM (inactive)	> 100 µM (inactive)	> 100 µM (inactive)	> 100 µM (inactive)	> 100 µM (inactive)		> 100 µM (inactive)	> 100 µM (inactive)	> 100 µM (inactive)	> 100 µM (inactive)	> 100 µM (inactive)	> 100 µM		> 100 µM (inactive)	> 100 µM (inactive)
Cc1ccc(/C=C/C(=O)c2sc(C(N)=S)nc2C)cc1	> 100 µM (inactive)	> 100 µM (inactive)	> 100 µM (inactive)	> 100 µM (inactive)	> 100 µM (inactive)	> 100 µM (inactive)		> 100 µM (inactive)	> 100 µM (inactive)	> 100 µM (inactive)	> 100 µM (inactive)	> 100 µM (inactive)	> 100 µM (inactive)	> 100 µM	> 100 µM (inactive)		> 100 µM (inactive)
COC(=O)C1C(/C=C/c2ccoc2)ON2CCC[C@@H]12 (stereo not given in full)		> 100 µM (inactive)	> 100 µM (inactive)	> 100 µM (inactive)		> 100 µM (inactive)	> 100 µM (inactive)	> 100 µM (inactive)	> 100 µM (inactive)	> 100 µM (inactive)		> 100 µM (inactive)	> 100 µM (inactive)		> 100 µM (inactive)		> 100 µM (inactive)
